Test results reported in PubChem BioAssay (NCI).
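Assay format: 96-well plates, 48-hour exposure. Abbreviation: GI50, concentration required for 50% inhibition of growth. TGI is the concentration that stops growth completely.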

Tests used:
Experiment in all cases: NCI anticancer screen, dose series, 48 h
DU-145 prostate = tested on: DU-145 prostate
HL-60(TB) leukemia = tested on: HL-60(TB) leukemia
MDA-N = tested on: MDA-N
SNB-75 CNS = tested on: SNB-75 CNS
COLO 205 colon = tested on: COLO 205 colon
IGROV1 ovarian = tested on: IGROV1 ovarian
NCI-H522 lung = tested on: NCI-H522 lung
CCRF-CEM leukemia = tested on: CCRF-CEM leukemia
SK-MEL-5 melanoma = tested on: SK-MEL-5 melanoma
SF-295 CNS = tested on: SF-295 CNS
SR leukemia = tested on: SR leukemia
ACHN renal = tested on: ACHN renal
HS 578T breast = tested on: HS 578T breast
M14 melanoma = tested on: M14 melanoma
TK-10 renal = tested on: TK-10 renal
HCC-2998 colon = tested on: HCC-2998 colon
SF-539 CNS = tested on: SF-539 CNS
SK-MEL-28 melanoma = tested on: SK-MEL-28 melanoma
CAKI-1 renal = tested on: CAKI-1 renal
786-0 renal = tested on: 786-0 renal
RXF 393 renal = tested on: RXF 393 renal
NCI-H460 lung = tested on: NCI-H460 lung
OVCAR-5 ovarian = tested on: OVCAR-5 ovarian
HCT-116 colon = tested on: HCT-116 colon
HCT-15 colon = tested on: HCT-15 colon
OVCAR-3 ovarian = tested on: OVCAR-3 ovarian
MALME-3M melanoma = tested on: MALME-3M melanoma
OVCAR-4 ovarian = tested on: OVCAR-4 ovarian
LOX IMVI melanoma = tested on: LOX IMVI melanoma
EKVX NSCLC = tested on: EKVX NSCLC
KM12 colon = tested on: KM12 colon
HOP-92 NSCLC = tested on: HOP-92 NSCLC
PC-3 prostate = tested on: PC-3 prostate
U251 CNS = tested on: U251 CNS
SK-MEL-2 melanoma = tested on: SK-MEL-2 melanoma
MDA-MB-435 = tested on: MDA-MB-435
T-47D breast = tested on: T-47D breast
SW-620 colon = tested on: SW-620 colon
BT-549 breast = tested on: BT-549 breast
HOP-62 NSCLC = tested on: HOP-62 NSCLC
RPMI-8226 leukemia = tested on: RPMI-8226 leukemia
MOLT-4 leukemia = tested on: MOLT-4 leukemia
A498 renal = tested on: A498 renal
NCI-H226 lung = tested on: NCI-H226 lung
SK-OV-3 ovarian = tested on: SK-OV-3 ovarian
NCI-H23 lung = tested on: NCI-H23 lung
K-562 leukemia = tested on: K-562 leukemia
UACC-257 melanoma = tested on: UACC-257 melanoma
HT29 colon = tested on: HT29 colon
MDA-MB-231 breast = tested on: MDA-MB-231 breast
SNB-19 CNS = tested on: SNB-19 CNS
NCI/ADR-RES ovarian = tested on: NCI/ADR-RES ovarian
A549 NSCLC = tested on: A549 NSCLC
UO-31 renal = tested on: UO-31 renal
OVCAR-8 ovarian = tested on: OVCAR-8 ovarian
MCF7 breast = tested on: MCF7 breast
SN12C renal = tested on: SN12C renal
UACC-62 melanoma = tested on: UACC-62 melanoma
SF-268 CNS = tested on: SF-268 CNS
KM20L2 colon = tested on: KM20L2 colon
HOP-18 NSCLC = tested on: HOP-18 NSCLC
DMS 114 small cell lung = tested on: DMS 114 small cell lung
XF 498 CNS = tested on: XF 498 CNS
LXFL 529 NSCLC = tested on: LXFL 529 NSCLC
DMS 273 small cell lung = tested on: DMS 273 small cell lung
M19-MEL melanoma = tested on: M19-MEL melanoma
DLD-1 colon = tested on: DLD-1 colon

Question: For `O=C1Cc2c(-c3ccccc3)cc(-c3cccc(Cl)c3)nc2-c2ccccc2N1`, which TGI (DU-145 prostate) is on record?
Answer: 11.8 µM

Question: What about the TGI (HL-60(TB) leukemia) of the same compound?
Answer: > 100 µM

Question: And the TGI (MDA-N)?
Answer: 31.6 µM

Question: And the TGI (SNB-75 CNS)?
Answer: 6.04 µM

Question: What about the TGI (COLO 205 colon) of the same compound?
Answer: > 58.3 µM

Question: And the TGI (IGROV1 ovarian)?
Answer: 6.45 µM

Question: What about the TGI (NCI-H522 lung) of the same compound?
Answer: 5.1 µM

Question: And the TGI (CCRF-CEM leukemia)?
Answer: 50.9 µM

Question: And the TGI (SK-MEL-5 melanoma)?
Answer: > 48.7 µM

Question: What about the TGI (SF-295 CNS) of the same compound?
Answer: 28.6 µM

Question: And the TGI (SR leukemia)?
Answer: > 100 µM

Question: What about the GI50 (ACHN renal) of the same compound?
Answer: 1.15 µM

Question: And the TGI (ACHN renal)?
Answer: 5.63 µM

Question: What about the TGI (HS 578T breast) of the same compound?
Answer: 9.85 µM

Question: And the TGI (M14 melanoma)?
Answer: > 63.9 µM

Question: And the TGI (TK-10 renal)?
Answer: 3.62 µM

Question: What about the TGI (HCC-2998 colon) of the same compound?
Answer: 7.76 µM

Question: And the TGI (SF-539 CNS)?
Answer: > 29.9 µM

Question: What about the TGI (SK-MEL-28 melanoma) of the same compound?
Answer: 25.8 µM

Question: And the TGI (CAKI-1 renal)?
Answer: 5.06 µM

Question: What about the GI50 (786-0 renal) of the same compound?
Answer: 0.977 µM

Question: And the TGI (786-0 renal)?
Answer: 2.42 µM

Question: And the TGI (RXF 393 renal)?
Answer: 6.28 µM

Question: What about the TGI (NCI-H460 lung) of the same compound?
Answer: 3.71 µM

Question: What about the TGI (OVCAR-5 ovarian) of the same compound?
Answer: 30.3 µM

Question: What about the TGI (HCT-116 colon) of the same compound?
Answer: 4.13 µM

Question: What about the TGI (HCT-15 colon) of the same compound?
Answer: 17.6 µM

Question: And the TGI (OVCAR-3 ovarian)?
Answer: 6.84 µM

Question: And the TGI (MALME-3M melanoma)?
Answer: 13.3 µM

Question: And the TGI (OVCAR-4 ovarian)?
Answer: 5.71 µM

Question: What about the TGI (LOX IMVI melanoma) of the same compound?
Answer: 7.28 µM

Question: What about the TGI (EKVX NSCLC) of the same compound?
Answer: 12.6 µM

Question: What about the TGI (KM12 colon) of the same compound?
Answer: > 75.3 µM

Question: And the TGI (HOP-92 NSCLC)?
Answer: 5.42 µM

Question: And the TGI (PC-3 prostate)?
Answer: 23.2 µM

Question: And the TGI (U251 CNS)?
Answer: 3.12 µM

Question: And the TGI (SK-MEL-2 melanoma)?
Answer: 24.4 µM

Question: What about the TGI (MDA-MB-435) of the same compound?
Answer: > 59.9 µM

Question: What about the TGI (T-47D breast) of the same compound?
Answer: 6.01 µM

Question: What about the TGI (SW-620 colon) of the same compound?
Answer: > 100 µM

Question: What about the TGI (BT-549 breast) of the same compound?
Answer: 22.1 µM

Question: And the TGI (HOP-62 NSCLC)?
Answer: 4.12 µM

Question: What about the TGI (RPMI-8226 leukemia) of the same compound?
Answer: > 93 µM

Question: What about the TGI (MOLT-4 leukemia) of the same compound?
Answer: > 90.4 µM

Question: What about the TGI (A498 renal) of the same compound?
Answer: 15.7 µM

Question: And the TGI (NCI-H226 lung)?
Answer: 17.7 µM

Question: What about the TGI (SK-OV-3 ovarian) of the same compound?
Answer: 9.49 µM

Question: What about the TGI (NCI-H23 lung) of the same compound?
Answer: 16.8 µM

Question: And the TGI (K-562 leukemia)?
Answer: > 40.3 µM

Question: What about the TGI (UACC-257 melanoma) of the same compound?
Answer: 24.1 µM

Question: What about the TGI (HT29 colon) of the same compound?
Answer: 5.17 µM

Question: And the TGI (MDA-MB-231 breast)?
Answer: 5.49 µM

Question: What about the TGI (SNB-19 CNS) of the same compound?
Answer: 3.59 µM

Question: What about the TGI (NCI/ADR-RES ovarian) of the same compound?
Answer: 7.46 µM

Question: And the TGI (A549 NSCLC)?
Answer: 9.25 µM

Question: What about the TGI (UO-31 renal) of the same compound?
Answer: 11.2 µM

Question: And the TGI (OVCAR-8 ovarian)?
Answer: 5.4 µM

Question: And the TGI (MCF7 breast)?
Answer: > 22.6 µM

Question: What about the TGI (SN12C renal) of the same compound?
Answer: 16.2 µM

Question: What about the TGI (UACC-62 melanoma) of the same compound?
Answer: 12.2 µM

Question: And the TGI (SF-268 CNS)?
Answer: 14 µM

Question: With `c1c[nH]c(Cc2ncc(Cc3cnc[nH]3)[nH]2)n1` as the compound, how does the TGI (KM20L2 colon) read?
Answer: > 100 µM

Question: And the TGI (HL-60(TB) leukemia)?
Answer: 21.5 µM

Question: What about the TGI (SNB-75 CNS) of the same compound?
Answer: > 100 µM

Question: What about the TGI (COLO 205 colon) of the same compound?
Answer: > 100 µM

Question: And the TGI (IGROV1 ovarian)?
Answer: 85 µM

Question: And the TGI (NCI-H522 lung)?
Answer: > 100 µM

Question: What about the TGI (CCRF-CEM leukemia) of the same compound?
Answer: 58.7 µM

Question: What about the TGI (SK-MEL-5 melanoma) of the same compound?
Answer: 59.1 µM

Question: What about the TGI (SF-295 CNS) of the same compound?
Answer: > 100 µM

Question: What about the TGI (ACHN renal) of the same compound?
Answer: 51.5 µM

Question: And the TGI (M14 melanoma)?
Answer: 36.7 µM

Question: And the TGI (TK-10 renal)?
Answer: > 100 µM

Question: And the TGI (HCC-2998 colon)?
Answer: > 100 µM

Question: What about the TGI (HOP-18 NSCLC) of the same compound?
Answer: > 100 µM

Question: And the TGI (SF-539 CNS)?
Answer: > 100 µM

Question: And the TGI (SK-MEL-28 melanoma)?
Answer: > 100 µM

Question: What about the TGI (DMS 114 small cell lung) of the same compound?
Answer: 58.6 µM

Question: And the TGI (CAKI-1 renal)?
Answer: > 100 µM

Question: What about the TGI (786-0 renal) of the same compound?
Answer: 65.8 µM

Question: And the TGI (NCI-H460 lung)?
Answer: 96.2 µM

Question: And the TGI (OVCAR-5 ovarian)?
Answer: 59.6 µM

Question: And the TGI (HCT-116 colon)?
Answer: > 100 µM

Question: What about the TGI (HCT-15 colon) of the same compound?
Answer: > 100 µM

Question: And the TGI (OVCAR-3 ovarian)?
Answer: > 100 µM

Question: And the TGI (MALME-3M melanoma)?
Answer: > 100 µM

Question: What about the TGI (XF 498 CNS) of the same compound?
Answer: > 100 µM

Question: And the TGI (OVCAR-4 ovarian)?
Answer: > 100 µM

Question: And the TGI (LOX IMVI melanoma)?
Answer: 96.2 µM

Question: What about the TGI (EKVX NSCLC) of the same compound?
Answer: > 100 µM

Question: What about the TGI (KM12 colon) of the same compound?
Answer: > 100 µM

Question: And the TGI (LXFL 529 NSCLC)?
Answer: > 100 µM

Question: And the TGI (HOP-92 NSCLC)?
Answer: > 100 µM

Question: What about the TGI (U251 CNS) of the same compound?
Answer: > 100 µM

Question: What about the TGI (SK-MEL-2 melanoma) of the same compound?
Answer: > 100 µM

Question: And the TGI (DMS 273 small cell lung)?
Answer: 67.8 µM

Question: What about the TGI (SW-620 colon) of the same compound?
Answer: > 100 µM

Question: And the TGI (HOP-62 NSCLC)?
Answer: 98.6 µM

Question: What about the TGI (RPMI-8226 leukemia) of the same compound?
Answer: > 100 µM

Question: What about the TGI (MOLT-4 leukemia) of the same compound?
Answer: > 100 µM

Question: What about the TGI (A498 renal) of the same compound?
Answer: 86 µM

Question: What about the TGI (NCI-H226 lung) of the same compound?
Answer: 46.3 µM

Question: What about the TGI (SK-OV-3 ovarian) of the same compound?
Answer: 86.2 µM

Question: And the TGI (NCI-H23 lung)?
Answer: > 100 µM

Question: And the TGI (K-562 leukemia)?
Answer: > 100 µM

Question: And the TGI (HT29 colon)?
Answer: > 100 µM

Question: And the TGI (M19-MEL melanoma)?
Answer: 55.8 µM

Question: What about the TGI (SNB-19 CNS) of the same compound?
Answer: 84.4 µM

Question: What about the TGI (DLD-1 colon) of the same compound?
Answer: > 100 µM

Question: And the TGI (A549 NSCLC)?
Answer: > 100 µM

Question: What about the TGI (OVCAR-8 ovarian) of the same compound?
Answer: > 100 µM

Question: What about the TGI (SN12C renal) of the same compound?
Answer: > 100 µM

Question: And the TGI (UACC-62 melanoma)?
Answer: 59.5 µM

Question: What about the TGI (SF-268 CNS) of the same compound?
Answer: > 100 µM
